Data: US20080103191A1, “ENTACAPONE-DERIVATIVES” (priority 2006, published 2008)
Converted amounts (≈) assume the structure as drawn. Like-named read-outs stand apart in the source and are kept apart here.

Tests used:
[1] = Solubility in 0.1 N HCl, PBS buffer, FaSSIF and FeSSIF; type: physicochemical; conditions: thermodynamic from solid
Experimental: For testing solubility, saturated solutions of selected compounds of formula I are prepared in four different systems and compared to the solubility of entacapone. The solubility is tested in 0.1 N HCl (pH 1), PBS buffer (pH 7.4) and in two simulated gastric fluids, FaSSIF at pH 6.5 (for fasting state) and FeSSIF at pH 5.0 (for fed state) at ambient temperature. The content of the FaSSIF simulated gastric fluid is as follows:
The solubility testing is carried out by the following method: An excess amount of each compound is added to a 0.1 N HCl, PBS buffer, FeSSIF and FaSSIF. The suspensions are shaken for 10 min. After centrifugation the concentration is determined by HPLC. Reversed phase gradient HPLC method, column YMC Pro C8, 50 mm×4.0 mm, 3 μm, Eluent A: Water:trifluoroacetic acid (100:0.5 (v/v)), Eluent B: Acetonitrile:trifluoroacetic:acid (100:0.5 (v/v)). Column temperature 30° C., Flow rate 3.0 mL/min, Detection wavelength: 220 nm

[2] = Plasma stability ex vivo; type: in vitro ADME; conditions: human plasma, 37° C., read-out: t1/2 plasma
Experimental: Plasma stability is determined in human and rat plasma ex vivo. For the determination of the plasma stability of the compounds of formula I, the test compounds were incubated with human plasma (c=5 μg/mL) at 37° C. for certain time intervals up to 60, resp. 120 min (depending on the compound). Afterwards the incubations were stopped by equivalent addition of acetonitrile for protein precipitation, and the samples were mixed and centrifuged. The supernatants were adequately diluted and analyzed by HPLC with UV detection at 305 nm.
The degradation of the compounds of formula I as well as the formation of the active drug entacapone were monitored, and the half-life times of the compounds of formula I were calculated from the obtained peak areas.

[3] = Chemical hydrolysis stability at pH 1 and pH 7.4 (HPLC); type: physicochemical; conditions: 37° C., over 12 h
Experimental: The stability of compounds of the present invention is tested at pH 1 and at pH 7.4. The testing is carried out by the following HPLC method:
Chemical hydrolysis rates t1/2 [h] of selected compounds of formula I are determined in 0.1 N HCl (pH 1) and PBS buffer (pH 7.4) solution. Solutions are prepared by dissolving an appropriate amount of compound in 0.1 N HCl and PBS buffer solution. Samples were withdrawn at designated time intervals and analysed for remaining prodrug by HPLC at 37° C. over 12 h.
Reversed phase gradient HPLC method, column YMC Pro C8, 50 mm×4.0 mm, 3 μm, Eluent A: Water:trifluoroacetic acid (100:0.5 (v/v)), Eluent B: Acetonitrile:trifluoroacetic:acid (100:0.5 (v/v)). Column temperature 30° C., Flow rate 3.0 mL/min, Detection wavelength: 220 nm
For evaluation, the peak area of the respective compound from the first injection is defined as 100% relative concentration. The peak areas of all other subsequent injections are calculated in percentage relating to this standard. (relative concentration in %). The relative concentrations are plotted in a logarithmic scale (ln) against the injection times. Based on the assumption of a first order kinetic, the rate constant and half life times (t1/2 [h]) can be calculated.

[4] = Log D (pH 7.4) by isocratic HPLC; type: physicochemical; conditions: YMC Pro C18 column, phosphate buffer pH 7.4/acetonitrile 45/55
Experimental: LogD is an indicator for absorption and lipophilicity for ionized compounds under defined pH conditions and is measured by applying an isocratic HPLC Method at pH 7.4.
The log D has been tested at pH 7.4. The testing has been carried out by the following method: Isocratic HPLC method: Column YMC Pro C18, 150 mm×4.0 mm, 3 μm, Eluent Phosphate buffer pH 7.4/acetonitrile (45/55, (v/v)), Runtime 15-60 min, Flow rate 1.2 ml/min, Detection wavelength: 220 nm

[5] = Permeability in Caco-2 cells, apical to basolateral; type: in vitro ADME; design: dose or concentration left out as unconfirmed; conditions: human; 21d Caco-2 monolayer, apical pH 6.5 to basolateral pH 7.4, 60 minutes
From the text: The human adenocarcinoma cell line Caco-2 is used as an in vitro system to predict oral absorption. These cells serve as a model of small bowel tissue and permeation through these cells is a predictor for gastro-intestinal absorption. Further to being a model for oral absorption, permeability in Caco-2 cells may be predictive for the blood brain barrier permeability (P. Garberg et al.; Toxicology in vitro 19 (2005); 299-334). […] The permeability in Caco-2 cells has been tested by the following method:
The permeability of selected compounds of formula I across Caco-2 (21d Caco-2-culture) monolayer in the apical to basolateral direction is investigated. Control substances were ^3H-propranolol and ^3H-mannitol.
The nominal concentration of the test items is […]. The pH value is set to 6.5 for the apical transport medium and to 7.4 for the basolateral medium. Samples are obtained following 60 minutes (120 minutes for control samples) incubation from the basolateral receiver chamber. At sampling time approximately 600 μL of each well are transferred into an eppendorf vial and stored between −12° and −30° C. until HPLC or LC-MS/MS analysis. The control substances are quantified by liquid scintillation.

[6] = Solubility in Labrasol and TPGS/PG formulations; type: physicochemical
Experimental: Selected lipophilic carbonate compounds of formula I with promising Caco-2 permeabilities are formulated with different lipids/lipophilic excipients and/or micelles forming compounds in order to increase their solubilities. The following formulations are prepared by mixing the ingredients mentioned below: • i) Formulations comprising solubilizers in the form of lipides/lipophilic excipients: • ia) Formulation comprising Labrasol® and the selected compounds of Formula I • Labrasol®: • Caprylocaproyl macrogol-8-glyceride (CAS No. 85536-07-8 and 84963-88-2). This is a mixture of mono-, di- and triesters of glycerol and of PEG 400 with medium-chain fatty acids (C8-C10) which is marketed, for example, by Gattefossé under the mark Labrasol®; Labrasol® has an HLB value (hydrophil-lipophil-balance, Griffin, W. C.: Classification of surface active agents by HLB, J. Soc. Cosmet. 1, 1949) of 14 and has the following composition by weight:
• ib) Formulation comprising NanoSolve® 5401 (Lipoid GmbH, Germany) and the selected compounds of formula I • ic) Formulation comprising TPGS/PG in a weight ratio of 25% by weight of TPGS to 75% by weight of PG and the selected compounds of formula I. • PG: propylene glycol • TPGS: Vitamin E TPGS NF (d-α-tocopheryl polyethylene glycol 1000 succinate) which is marketed, for example, by Eastman Chemical Co • ii) Formulation comprising a micelles forming agent: • iia) Aqueous formulation comprising 30% by weight of Cremophor® RH 40 (relating to the weight of the aqueous phase) in water and the selected compounds of formula I • Cremophor® RH 40: • Generic names: • Polyoxyl 40 Hydrogenated Castor Oil (USP/NF). • Macrogol-Glycerolhydroxystearat (DAB). • Polyoxyethylenglyceroltrihydroxystearat (DAC). • Cremophor RH 40 is a non-ionic solubilizer and emulsifying agent obtained by reacting 45 moles of ethylene oxide with 1 mole of hydrogenated castor oil. The main constituent of Cremophor RH 40 is glycerol polyethylene glycol oxystearate, which, together with fatty acid glycerol polyglycol esters, forms the hydrophobic part of the product. The hydrophilic part consists of polyethylene glycols and glycerol ethoxylate. Cremophor RH 40 is a white to yellowish thin paste at 20° C. The HLB value lies between 14 and 16. Cremophor RH 40 is marketed by BASF AG.
The solubility of selected compounds of formula I in these formulations is measured and compared to the solubility of the compounds in 0.1N HCl (pH 1.0), PBS buffer (pH 7.4), and two simulated gastric fluids (i.e., FaSSIF (pH 6.5) simulating fasting sate and FeSSIF (pH 5.0) simulating fed state) (see above for details).

[7] = 0.1 N HCl, pH 1, simulated gastric fluid, ambient temperature, shaken 10 min, read-out: Solubility 0.1N HCl Ph 1.0
[8] = FaSSIF, pH 6.5, fassif, fasting state fluid, ambient temperature, read-out: Solubility FaSSIF Ph 6.5
[9] = FeSSIF, pH 5, fessif, fed state fluid, ambient temperature, read-out: Solubility FeSSIF Ph 5.0
[10] = PBS buffer, pH 7.4, aqueous buffer, ambient temperature, read-out: Solubility PBS Ph 7.4
[11] = pH 1, 0.1 N HCl, read-out: t1/2 at pH 1 (converted)
[12] = pH 7.4, PBS buffer, read-out: t1/2 at pH 7.4 (converted)

Row | SMILES | solubility at 10 min [1, 7] | solubility at 10 min [1, 8] | solubility at 10 min [1, 9] | solubility at 10 min [1, 10] | half-life at 5 μg/mL [2] | half-life [3, 11] | half-life [3, 12] | chromatographic logD [4] | Papp A→B at 60 min [5] | solubility at 10 min ([1]; 0.1 N HCl, pH 1, simulated gastric fluid, Table 11, maximum solubility, read-out: Solubility 0.1N HCl pH 1.0) | solubility at 10 min ([1]; FaSSIF, pH 6.5, fassif, Table 11, read-out: Solubility FaSSIF pH 6.5) | solubility at 10 min ([1]; FeSSIF, pH 5, fessif, Table 11, read-out: Solubility FeSSIF pH 5.0) | solubility at 10 min ([1]; PBS buffer, pH 7.4, aqueous buffer, Table 11, read-out: Solubility PBS pH 7.4) | solubility ([6]; Labrasol, oil or lipid, read-out: Solubility Labrasol ®) | solubility ([6]; organic solvent or mixture, 25% by weight TPGS, 75% by weight PG, read-out: Solubility TPGS/PG)
1 | CCN(CC)C(=O)/C(C#N)=C/c1cc(OC(=O)OC(C)C)c(O)c([N+](=O)[O-])c1 [Compound 7, Carbonic acid 5-((E)-2-cyano-2-diethylcarbamoyl-vinyl)-2-hydroxy-3-nitro-phenyl ester isopropyl ester] | 3 µg/mL (≈ 7.67 µM) | 750 µg/mL (≈ 1920 µM) | 90 µg/mL (≈ 230 µM) | 950 µg/mL (≈ 2430 µM) | 0.223 h | 2.7 h | 23.1 h | 1 | 31 ×10⁻⁶ cm/s |  |  |  |  |  | 
2 | CCN(CC)C(=O)/C(C#N)=C/c1cc(OC(=O)OCCc2cccs2)c(O)c([N+](=O)[O-])c1 [Compound 61, Carbonic acid 5-((E)-2-cyano-2-diethylcarbamoyl-vinyl)-2-hydroxy-3-nitro-phenyl ester 2-thiophen-2-yl-ethyl ester] |  | 240 µg/mL (≈ 522 µM) | 40 µg/mL (≈ 87.1 µM) | 490 µg/mL (≈ 1070 µM) | 0.47 h | 12.8 h | 4 h | 1.7 | 36 ×10⁻⁶ cm/s |  |  |  |  |  | 
3 | CCC(CC)OC(=O)Oc1cc(/C=C(\C#N)C(=O)N(CC)CC)cc([N+](=O)[O-])c1O [Compound 10, Carbonic acid 5-((E)-2-cyano-2-diethylcarbamoyl-vinyl)-2-hydroxy-3-nito-phenyl ester 1-ethyl-propyl ester] | 30 µg/mL (≈ 71.5 µM) | 840 µg/mL (≈ 2000 µM) | 190 µg/mL (≈ 453 µM) | 1330 µg/mL (≈ 3170 µM) |  | 38.5 h | 38.5 h | 1.8 | 22.4 ×10⁻⁶ cm/s | 30 µg/mL (≈ 71.5 µM) | 840 µg/mL (≈ 2000 µM) | 1330 µg/mL (≈ 3170 µM) | 190 µg/mL (≈ 453 µM) | 22000 µg/mL (≈ 52500 µM) | 3900 µg/mL (≈ 9300 µM)
4 | CCN(CC)C(=O)/C(C#N)=C/c1cc(OC(=O)OC2CCCCC2)c(O)c([N+](=O)[O-])c1 [Compound 51, Carbonic acid 5-((E)-2-cyano-2-diethylcarbamoyl-vinyl)-2-hydroxy-3-nitro-phenyl ester cyclohexyl ester] | < 10 µg/mL | 1200 µg/mL (≈ 2780 µM) | 140 µg/mL (≈ 324 µM) | 810 µg/mL (≈ 1880 µM) | 0.64 h | < 1 h | 19.3 h | 1.8 | 45 ×10⁻⁶ cm/s |  |  |  |  |  | 
5 | CCN(CC)C(=O)/C(C#N)=C/c1cc(OC(=O)OCC(C)C)c(O)c([N+](=O)[O-])c1 [Compound 1, Carbonic acid 5-((E)-2-cyano-2-diethylcarbamoyl-vinyl)-2-hydroxy-3-nitro-phenyl ester isobutyl ester] | 20 µg/mL (≈ 49.3 µM) | 530 µg/mL (≈ 1310 µM) | 200 µg/mL (≈ 493 µM) | 530 µg/mL (≈ 1310 µM) | 0.128 h | 6.8 h | 11.6 h | 1.4 | 24 ×10⁻⁶ cm/s |  |  |  |  |  | 
6 | CCCOC(=O)Oc1cc(/C=C(\C#N)C(=O)N(CC)CC)cc([N+](=O)[O-])c1O [Compound 41, Carbonic acid 5-((E)-2-cyano-2-diethylcarbamoyl-vinyl)-2-hydroxy-3-nitro-phenyl ester propyl ester] | 10 µg/mL (≈ 25.6 µM) | 290 µg/mL (≈ 741 µM) | 200 µg/mL (≈ 511 µM) | 470 µg/mL (≈ 1200 µM) | 0.112 h | 23.1 h | 7.2 h | 1.2 | 18 ×10⁻⁶ cm/s |  |  |  |  |  | 
7 | CCOC(=O)Oc1cc(/C=C(\C#N)C(=O)N(CC)CC)cc([N+](=O)[O-])c1O [Compound 71, Carbonic acid 5-((E)-2-cyano-2-diethylcarbamoyl-vinyl)-2-hydroxy-3-nitro-phenyl ester ethyl ester] | 70 µg/mL (≈ 186 µM) | 570 µg/mL (≈ 1510 µM) | 1100 µg/mL (≈ 2920 µM) | 800 µg/mL (≈ 2120 µM) | 0.0133 h | 28.9 h | 8.3 h | 0.8 | 7.7 ×10⁻⁶ cm/s |  |  |  |  |  | 
